Measurements: article PMC4505863 (ACS Chemical Neuroscience, 2014)

Assays:
[1] = molecular target: 5-HT1B (Homo sapiens, UniProt P28222); test: PDSP screening affinity 5-HT1B; assay type: binding
[2] = molecular target: T1, 5-HT1A (Homo sapiens, UniProt P08908); test: PDSP screening affinity 5-HT1A; assay type: binding; settings: 5-HT1A affinity
T1 sequence (P08908 1-422): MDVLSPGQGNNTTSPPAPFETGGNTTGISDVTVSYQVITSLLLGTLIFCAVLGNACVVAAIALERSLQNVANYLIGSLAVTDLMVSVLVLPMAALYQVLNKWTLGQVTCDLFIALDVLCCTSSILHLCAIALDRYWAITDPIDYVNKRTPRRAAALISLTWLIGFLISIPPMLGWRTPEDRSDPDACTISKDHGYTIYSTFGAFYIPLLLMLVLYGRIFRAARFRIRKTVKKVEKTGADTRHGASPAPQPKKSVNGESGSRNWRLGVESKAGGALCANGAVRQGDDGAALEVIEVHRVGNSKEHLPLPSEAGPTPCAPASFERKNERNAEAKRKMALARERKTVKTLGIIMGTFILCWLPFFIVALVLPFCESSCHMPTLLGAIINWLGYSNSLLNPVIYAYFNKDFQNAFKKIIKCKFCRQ

[3] = molecular target: T2, r5-HT2C (Rattus norvegicus, UniProt P08909); test: Ca2+ mobilization assay; assay type: cell-based; settings: for Emax: read-out: r5-HT2C Emax
T2 sequence (P08909 33-460): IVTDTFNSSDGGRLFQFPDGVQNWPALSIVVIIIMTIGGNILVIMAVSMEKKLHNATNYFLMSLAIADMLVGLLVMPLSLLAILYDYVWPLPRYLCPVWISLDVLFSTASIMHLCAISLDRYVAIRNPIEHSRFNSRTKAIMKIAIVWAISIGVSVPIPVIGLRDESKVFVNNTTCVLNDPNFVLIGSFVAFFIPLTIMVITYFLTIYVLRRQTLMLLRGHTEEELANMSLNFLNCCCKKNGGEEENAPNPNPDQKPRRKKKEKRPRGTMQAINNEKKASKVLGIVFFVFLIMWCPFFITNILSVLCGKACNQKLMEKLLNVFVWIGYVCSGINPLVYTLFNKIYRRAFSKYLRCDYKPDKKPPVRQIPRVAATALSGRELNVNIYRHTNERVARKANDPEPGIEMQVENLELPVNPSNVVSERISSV

[4] = molecular target: T3, human 5-HT2C receptor (Homo sapiens, UniProt P28335); test: h5-HT2C affinity, antagonist radioligand [3H]mesulergine; assay type: binding
T3 sequence (P28335 33-458): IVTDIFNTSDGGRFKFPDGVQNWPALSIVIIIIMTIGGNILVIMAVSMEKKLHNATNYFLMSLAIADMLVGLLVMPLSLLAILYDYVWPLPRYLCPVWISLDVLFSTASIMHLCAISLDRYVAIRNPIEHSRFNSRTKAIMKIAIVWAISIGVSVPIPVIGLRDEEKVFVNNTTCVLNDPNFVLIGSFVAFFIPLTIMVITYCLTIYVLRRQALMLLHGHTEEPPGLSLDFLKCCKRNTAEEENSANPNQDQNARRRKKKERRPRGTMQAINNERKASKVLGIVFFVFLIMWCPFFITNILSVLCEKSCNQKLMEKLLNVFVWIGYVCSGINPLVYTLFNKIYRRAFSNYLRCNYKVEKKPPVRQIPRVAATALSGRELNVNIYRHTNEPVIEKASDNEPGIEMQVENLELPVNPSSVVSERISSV

[5] = molecular target: T3, human 5-HT2C receptor; test: h5-HT2C affinity, agonist radioligand [125I]DOI; assay type: binding
[6] = molecular target: 5-HT7 (Homo sapiens, UniProt P34969); test: PDSP screening affinity 5-HT7; assay type: binding; settings: 5-HT7 affinity
[7] = molecular target: T4, 5-HT3 (Homo sapiens, UniProt P46098); test: PDSP screening affinity 5-HT3; assay type: binding
T4 sequence (P46098 24-478): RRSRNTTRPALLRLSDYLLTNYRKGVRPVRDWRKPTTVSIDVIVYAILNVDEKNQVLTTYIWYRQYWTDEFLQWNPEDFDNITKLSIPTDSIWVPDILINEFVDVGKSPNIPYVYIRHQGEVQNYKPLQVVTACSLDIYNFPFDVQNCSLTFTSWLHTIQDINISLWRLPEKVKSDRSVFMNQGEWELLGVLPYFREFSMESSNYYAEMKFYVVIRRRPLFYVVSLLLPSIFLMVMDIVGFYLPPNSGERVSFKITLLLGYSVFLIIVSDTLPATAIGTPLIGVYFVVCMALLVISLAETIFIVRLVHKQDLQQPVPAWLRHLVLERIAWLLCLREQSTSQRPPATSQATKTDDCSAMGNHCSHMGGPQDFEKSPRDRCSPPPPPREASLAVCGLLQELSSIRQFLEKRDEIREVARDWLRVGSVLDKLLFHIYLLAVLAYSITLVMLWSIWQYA

[8] = molecular target: 5-ht1e (Homo sapiens, UniProt P28566); test: PDSP screening affinity 5-ht1e; assay type: binding
[9] = molecular target: h5-HT2B (Homo sapiens, UniProt P41595); test: Ca2+ mobilization assay; assay type: cell-based; settings: for Emax: HEK293, read-out: h5-HT2B Emax
[10] = molecular target: T5, h5-HT2C (Homo sapiens, UniProt P28335); test: Ca2+ mobilization assay; assay type: cell-based; settings: for Emax: HEK293, read-out: h5HT2C Emax
T5 sequence (P28335 33-458): T3 sequence (P28335 33-458)

[11] = molecular target: 5-HT6 (Homo sapiens, UniProt P50406); test: PDSP screening affinity 5-HT6; assay type: binding; settings: 5-HT6 affinity
[12] = molecular target: h5-HT2A (Homo sapiens, UniProt P28223); test: Ca2+ mobilization assay; assay type: cell-based; settings: for Emax: HEK293, read-out: h5-HT2A Emax, percentage of the maximum response to 5-HT
[13] = molecular target: 5-HT1D (Homo sapiens, UniProt P28221); test: PDSP screening affinity 5-HT1D; assay type: binding
[14] = molecular target: T6, 5-HT2A receptor (Homo sapiens, UniProt P28223); test: h5-HT2A affinity, agonist radioligand [125I]DOI; assay type: binding
[15] = molecular target: T6, 5-HT2A receptor; test: h5-HT2A affinity, antagonist radioligand [3H]ketanserin; assay type: binding
[16] = molecular target: r5-HT2A (Rattus norvegicus, UniProt P14842); test: Ca2+ mobilization assay; assay type: cell-based; settings: for Emax: read-out: r5-HT2A Emax, percentage of the maximum response to 5-HT
[17] = molecular target: 5-HT2B (Homo sapiens, UniProt P41595); test: PDSP screening affinity 5-HT2B; assay type: binding
[18] = molecular target: 5-ht5a (Homo sapiens, UniProt P47898); test: PDSP screening affinity 5-ht5a; assay type: binding
[19] = system: Male C57BL/6J mice; test: Mouse head twitch response; settings: for activity in the HTR assay (active / inactive): doses up to 30 mg/kg
[20] = r5-HT2C EC50, Ca2+ mobilization
[21] = h5-HT2B EC50, Ca2+ mobilization
[22] = h5-HT2B pEC50 ± SEM, Ca2+ mobilization, NA = not active, Emax ≤ 15%
[23] = r5-HT2A EC50, Ca2+ mobilization

5-ht5a, sequence (P47898 whole entry): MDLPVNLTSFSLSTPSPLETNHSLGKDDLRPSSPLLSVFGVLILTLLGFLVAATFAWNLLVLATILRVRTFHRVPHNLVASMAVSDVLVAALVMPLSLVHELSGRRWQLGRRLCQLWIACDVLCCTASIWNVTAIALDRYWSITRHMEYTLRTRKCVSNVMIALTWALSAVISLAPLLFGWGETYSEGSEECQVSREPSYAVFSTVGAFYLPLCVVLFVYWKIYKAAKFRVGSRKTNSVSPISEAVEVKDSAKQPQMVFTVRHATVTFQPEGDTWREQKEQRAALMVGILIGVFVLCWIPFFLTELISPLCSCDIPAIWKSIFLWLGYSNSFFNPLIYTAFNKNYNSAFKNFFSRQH
5-HT6, sequence (P50406 whole entry): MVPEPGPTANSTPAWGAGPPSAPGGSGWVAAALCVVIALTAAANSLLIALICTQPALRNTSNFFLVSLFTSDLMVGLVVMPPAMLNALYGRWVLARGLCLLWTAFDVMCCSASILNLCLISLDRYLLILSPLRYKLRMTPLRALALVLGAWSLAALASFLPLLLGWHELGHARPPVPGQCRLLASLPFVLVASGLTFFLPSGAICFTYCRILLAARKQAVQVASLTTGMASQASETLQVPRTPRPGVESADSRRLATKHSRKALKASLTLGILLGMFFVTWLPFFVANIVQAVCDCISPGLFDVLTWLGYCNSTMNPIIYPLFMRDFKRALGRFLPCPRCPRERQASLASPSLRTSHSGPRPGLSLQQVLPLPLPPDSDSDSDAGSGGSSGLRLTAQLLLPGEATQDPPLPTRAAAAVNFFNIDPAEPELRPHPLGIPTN
5-HT7, sequence (P34969 whole entry): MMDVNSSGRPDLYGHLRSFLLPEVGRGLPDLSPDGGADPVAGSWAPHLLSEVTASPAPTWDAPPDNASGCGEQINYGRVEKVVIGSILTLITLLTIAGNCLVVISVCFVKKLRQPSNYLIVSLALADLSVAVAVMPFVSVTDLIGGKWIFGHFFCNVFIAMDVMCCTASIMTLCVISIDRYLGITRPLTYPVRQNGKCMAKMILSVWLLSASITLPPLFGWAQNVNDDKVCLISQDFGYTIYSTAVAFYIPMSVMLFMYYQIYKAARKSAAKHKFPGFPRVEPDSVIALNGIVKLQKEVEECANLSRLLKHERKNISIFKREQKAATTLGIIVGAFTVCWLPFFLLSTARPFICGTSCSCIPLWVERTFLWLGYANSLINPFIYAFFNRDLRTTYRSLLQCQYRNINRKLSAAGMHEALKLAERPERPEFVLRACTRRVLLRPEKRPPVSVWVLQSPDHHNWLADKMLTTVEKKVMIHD
r5-HT2A, sequence (P14842 whole entry): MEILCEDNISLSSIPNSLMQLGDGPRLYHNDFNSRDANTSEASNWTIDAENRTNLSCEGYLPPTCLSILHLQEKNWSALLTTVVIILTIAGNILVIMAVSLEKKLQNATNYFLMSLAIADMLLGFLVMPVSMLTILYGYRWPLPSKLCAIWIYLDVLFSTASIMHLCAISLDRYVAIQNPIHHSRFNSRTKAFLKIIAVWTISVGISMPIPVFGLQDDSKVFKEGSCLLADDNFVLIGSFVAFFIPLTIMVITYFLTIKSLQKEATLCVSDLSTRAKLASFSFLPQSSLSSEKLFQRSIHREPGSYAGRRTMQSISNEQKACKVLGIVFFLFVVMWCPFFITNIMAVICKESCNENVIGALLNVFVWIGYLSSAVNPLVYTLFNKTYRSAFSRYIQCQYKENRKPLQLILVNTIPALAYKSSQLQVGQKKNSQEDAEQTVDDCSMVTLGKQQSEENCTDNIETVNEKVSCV
T6 sequence (P28223 whole entry): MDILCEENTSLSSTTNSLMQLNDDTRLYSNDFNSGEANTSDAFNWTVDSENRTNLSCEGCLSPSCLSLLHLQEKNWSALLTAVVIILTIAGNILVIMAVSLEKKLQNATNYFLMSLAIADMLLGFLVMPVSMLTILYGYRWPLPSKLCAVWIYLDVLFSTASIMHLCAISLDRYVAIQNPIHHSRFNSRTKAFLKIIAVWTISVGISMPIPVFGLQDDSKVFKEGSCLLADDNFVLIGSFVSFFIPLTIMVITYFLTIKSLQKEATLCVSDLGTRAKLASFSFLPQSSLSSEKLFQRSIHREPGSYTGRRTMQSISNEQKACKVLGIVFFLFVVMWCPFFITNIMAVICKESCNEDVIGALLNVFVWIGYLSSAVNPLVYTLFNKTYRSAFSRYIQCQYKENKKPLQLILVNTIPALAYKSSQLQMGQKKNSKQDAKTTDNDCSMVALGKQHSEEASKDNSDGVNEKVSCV
h5-HT2A, sequence (P28223 whole entry): as above
5-ht1e, sequence (P28566 whole entry): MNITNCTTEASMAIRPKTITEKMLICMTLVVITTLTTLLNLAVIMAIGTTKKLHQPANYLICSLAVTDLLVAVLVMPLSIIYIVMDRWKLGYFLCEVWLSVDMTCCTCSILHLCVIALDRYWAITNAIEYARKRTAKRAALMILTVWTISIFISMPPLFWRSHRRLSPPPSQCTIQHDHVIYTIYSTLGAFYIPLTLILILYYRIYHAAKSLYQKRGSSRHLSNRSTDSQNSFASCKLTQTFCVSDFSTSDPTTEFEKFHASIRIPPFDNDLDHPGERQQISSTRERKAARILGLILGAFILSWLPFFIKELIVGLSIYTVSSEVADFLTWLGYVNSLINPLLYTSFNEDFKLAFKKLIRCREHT
5-HT2B, sequence (P41595 whole entry): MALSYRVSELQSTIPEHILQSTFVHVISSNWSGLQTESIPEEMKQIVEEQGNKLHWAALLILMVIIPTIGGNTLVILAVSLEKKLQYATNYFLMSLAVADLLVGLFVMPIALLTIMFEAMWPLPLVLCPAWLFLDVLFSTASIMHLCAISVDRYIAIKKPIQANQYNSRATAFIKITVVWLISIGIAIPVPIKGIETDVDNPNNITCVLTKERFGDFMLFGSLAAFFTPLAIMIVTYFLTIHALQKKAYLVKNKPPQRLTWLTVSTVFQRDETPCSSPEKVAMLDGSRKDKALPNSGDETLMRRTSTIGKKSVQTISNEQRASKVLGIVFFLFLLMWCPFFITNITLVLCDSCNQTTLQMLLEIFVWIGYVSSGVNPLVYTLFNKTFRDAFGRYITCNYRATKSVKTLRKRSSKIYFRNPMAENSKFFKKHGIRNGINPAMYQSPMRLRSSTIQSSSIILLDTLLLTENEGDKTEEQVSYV
h5-HT2B, sequence (P41595 whole entry): as above
5-HT1B, sequence (P28222 whole entry): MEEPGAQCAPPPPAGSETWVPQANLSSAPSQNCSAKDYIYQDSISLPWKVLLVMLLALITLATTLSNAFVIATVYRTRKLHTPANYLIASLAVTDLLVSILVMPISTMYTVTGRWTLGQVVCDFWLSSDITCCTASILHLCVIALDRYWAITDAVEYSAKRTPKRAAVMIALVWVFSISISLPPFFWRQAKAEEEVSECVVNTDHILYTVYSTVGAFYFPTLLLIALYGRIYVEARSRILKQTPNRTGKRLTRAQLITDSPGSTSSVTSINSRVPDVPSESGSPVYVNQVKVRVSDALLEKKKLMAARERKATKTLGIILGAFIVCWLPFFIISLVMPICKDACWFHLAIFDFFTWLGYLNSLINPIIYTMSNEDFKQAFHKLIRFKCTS
5-HT1D, sequence (P28221 whole entry): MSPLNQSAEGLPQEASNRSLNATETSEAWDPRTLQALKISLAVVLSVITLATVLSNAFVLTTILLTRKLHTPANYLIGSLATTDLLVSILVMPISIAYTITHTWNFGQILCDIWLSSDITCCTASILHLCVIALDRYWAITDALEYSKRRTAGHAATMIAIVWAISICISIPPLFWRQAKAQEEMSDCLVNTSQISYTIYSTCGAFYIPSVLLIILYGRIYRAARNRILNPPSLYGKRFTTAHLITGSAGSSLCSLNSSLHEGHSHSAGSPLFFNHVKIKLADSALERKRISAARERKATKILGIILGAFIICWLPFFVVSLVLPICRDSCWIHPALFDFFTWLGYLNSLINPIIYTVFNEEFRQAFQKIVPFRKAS

Row | SMILES | Ki ([1]; 5-HT1B affinity) | Ki [2] | Emax [3] | Ki [4] | Ki [5] | Ki [6] | Ki [7] | Ki [8] | Emax [9] | EC50 [9, 21] | Emax [10] | Ki [11] | EC50 [12] | Emax [12] | Ki [13] | Ki [14] | Ki [15] | EC50 [16, 23] | Ki ([18]; 5-ht5a affinity) | activity in the HTR assay (active / inactive) ([19]; SC) | also measured
1 | COc1cc(CCNCc2ccccc2Br)c(OC)cc1I [Compound 4c, N-(2-Bromobenzyl)-2-(4-iodo-2,5-dimethoxyphenyl)ethan-1-amine] | > 10000 nM | 1160 nM | 104 ± 1% | 8.71 nM | 1.02 nM | 2550 nM | > 10000 nM | > 10000 nM | 83 ± 3% | 134 nM | 87 ± 5% | 257 nM | 42 nM | 88 ± 1.5% | 423 nM | 0.38 nM | 2.34 nM | 36 nM | 2290 nM | active | EC50 [3, 20]: 105 nM; EC50 [9, 22]: 151 nM; EC50 ([10]; h5HT2C EC50, Ca2+ mobilization): 57.6 nM; Emax [16]: 65.6 ± 1.6%; Ki ([17]; 5-HT2B affinity): 20 nM; max counts ([19]; HTR counts, SC): 23.2; ED50 ([19]; Mus musculus, sc, read-out: ED50 mg/kg (95% CI), mouse head twitch): 2.31 mg/kg; magnitude of peak effect × vehicle ([19]; SC, mouse head twitch): 3.0 × vehicle; maximally effective dose ([19]; SC, mouse head twitch): 10 mg/kg
2 | COc1cc(CCNCc2cccc(Br)c2)c(OC)cc1I [Compound 4d, N-(3-Bromobenzyl)-2-(4-iodo-2,5-dimethoxyphenyl)ethan-1-amine] | 1570 nM | 670 nM | 101 ± 2% | 7.59 nM | 1.62 nM | 355 nM | > 10000 nM | 792 nM | 90 ± 2% | 85 nM | 74 ± 5% | 175 nM | 17 nM | 87.5 ± 1.3% | 162 nM | 0.57 nM | 3.98 nM | 14 nM | 1010 nM | inactive | EC50 ([3]; r5-HT2C pEC50 ± SEM, Ca2+ mobilization): 36.3 nM; EC50 [9, 22]: 89.1 nM; r5-HT2A Emax ([16]; percentage of the maximum response to 5-HT): 68.5 ± 0.9%; EC50 ([16]; r5-HT2A pEC50 ± SEM, Ca2+ mobilization): 15.8 nM; Ki ([17]; 5-HT2B pKi ± SEM): 12.9 nM; Ki ([18]; 5-ht5a pKi ± SEM): 1000 nM
3 | COc1cc(CCNCc2ccc(Br)cc2)c(OC)cc1I [Compound 4e, N-(4-Bromobenzyl)-2-(4-iodo-2,5-dimethoxyphenyl)ethan-1-amine] | 5090 nM | 649 nM | 105 ± 2% | 45.7 nM | 3.31 nM | 641 nM | 2460 nM | > 10000 nM | 90 ± 2% | 610 nM | 77 ± 5% | 350 nM | 170 nM | 88 ± 1.4% | 311 nM | 3.24 nM | 52.5 nM | 150 nM | 1850 nM | None of the phenethylamines or tryptamines with 4-substituted N-benzyl groups, 4b, 4e, 5c, or 5f, was active | Ki ([1]; 5-HT1B pKi ± SEM): 6030 nM; EC50 [3, 20]: 290 nM; EC50 ([10]; h5HT2C EC50, Ca2+ mobilization): 200 nM; EC50 ([10]; h5HT2C pEC50 ± SEM, Ca2+ mobilization): 219 nM; Emax [16]: 67.3 ± 0.9%; Ki ([17]; 5-HT2B affinity): 68 nM
